Assay results taken from the NIST ThermoML archive (doi:10.1021/je301344y).
Numbers after ± are expanded uncertainties.

Conditions: Fluid (supercritical or subcritical phases), Pulse-echo method

C=CC [propene]
Conditions | speed of sound [m/s]
240 K, 7107.3 kPa | 1153.2 ± 2.1
240 K, 8108.1 kPa | 1161.6 ± 2.1
240 K, 9108.7 kPa | 1169.9 ± 2.1
240 K, 10109 kPa | 1178 ± 1.2
240 K, 12611 kPa | 1197.8 ± 1.2
240 K, 15113 kPa | 1216.8 ± 1.2
240 K, 17614 kPa | 1235.1 ± 1.2
240 K, 20116 kPa | 1252.7 ± 1.1
240 K, 25119 kPa | 1286.5 ± 1.1
240 K, 30122 kPa | 1318.2 ± 1.1
240 K, 35126 kPa | 1348.3 ± 1.1
240 K, 40129 kPa | 1377 ± 1.1
240 K, 45132 kPa | 1404.3 ± 1.1
240 K, 50136 kPa | 1430.5 ± 1.1
240 K, 60144 kPa | 1479.9 ± 1.1
240.01 K, 1303 kPa | 1101.2 ± 2.2
240.01 K, 2103.6 kPa | 1108.7 ± 2.2
240.01 K, 3104.3 kPa | 1118 ± 2.2
240.01 K, 4105 kPa | 1127.1 ± 2.2
240.01 K, 5105.7 kPa | 1135.9 ± 2.1
240.01 K, 6106.4 kPa | 1144.7 ± 2.1
260 K, 1303.3 kPa | 970.62 ± 2.6
260 K, 2103.9 kPa | 979.88 ± 2.4
260 K, 3104.6 kPa | 991.17 ± 2.3
260 K, 4105.3 kPa | 1002.2 ± 2.3
260 K, 5106.1 kPa | 1012.9 ± 2.2
260 K, 6106.6 kPa | 1023.3 ± 2.2
260 K, 7107.2 kPa | 1033.5 ± 2.2
260 K, 8107.8 kPa | 1043.4 ± 2.2
260 K, 9108.2 kPa | 1053.1 ± 2.1
260 K, 10109 kPa | 1062.6 ± 1.2
260 K, 12613 kPa | 1085.6 ± 1.2
260 K, 15114 kPa | 1107.5 ± 1.2
260 K, 17616 kPa | 1128.4 ± 1.2
260 K, 20118 kPa | 1148.4 ± 1.1
260 K, 25121 kPa | 1186.3 ± 1.1
260 K, 30124 kPa | 1221.6 ± 1.1
260 K, 35128 kPa | 1254.8 ± 1.1
260 K, 40131 kPa | 1286.2 ± 1.1
260 K, 45134 kPa | 1316 ± 1.1
260 K, 50138 kPa | 1344.4 ± 1.1
260 K, 60145 kPa | 1397.5 ± 1.1
260 K, 70152 kPa | 1446.7 ± 1.1
260 K, 80158 kPa | 1492.6 ± 1.1
260 K, 90165 kPa | 1535.6 ± 1.1
260 K, 100172 kPa | 1576.3 ± 1.1
280 K, 1301.6 kPa | 836.39 ± 3
280 K, 2102.4 kPa | 848.18 ± 2.6
280 K, 3103.2 kPa | 862.38 ± 2.5
280 K, 4104 kPa | 876.04 ± 2.4
280 K, 5104.9 kPa | 889.2 ± 2.4
280 K, 6105.8 kPa | 901.91 ± 2.3
280 K, 7107.3 kPa | 914.23 ± 2.3
280 K, 8108.1 kPa | 926.15 ± 2.3
280 K, 9108.8 kPa | 937.72 ± 2.2
280 K, 10110 kPa | 948.97 ± 1.2
280 K, 12611 kPa | 975.84 ± 1.2
280 K, 15113 kPa | 1001.1 ± 1.2
280 K, 17613 kPa | 1025 ± 1.2
280 K, 20117 kPa | 1047.8 ± 1.1
280 K, 25118 kPa | 1090.3 ± 1.1
280 K, 30122 kPa | 1129.5 ± 1.1
280 K, 35126 kPa | 1166 ± 1.1
280 K, 40129 kPa | 1200.2 ± 1.1
280 K, 45133 kPa | 1232.4 ± 1.1
280 K, 50138 kPa | 1263.1 ± 1
280 K, 60144 kPa | 1320 ± 1
280 K, 70151 kPa | 1372.2 ± 1
280 K, 80157 kPa | 1420.7 ± 1
280 K, 90164 kPa | 1466.1 ± 1
280 K, 100171 kPa | 1508.7 ± 1.1
299.99 K, 1403.2 kPa | 696.05 ± 0.52
299.99 K, 2103.7 kPa | 710.03 ± 0.53
299.99 K, 4105.1 kPa | 746.66 ± 0.54
299.99 K, 8107.8 kPa | 809.26 ± 0.56
299.99 K, 15113 kPa | 898.02 ± 0.59
299.99 K, 20116 kPa | 951.33 ± 0.6
299.99 K, 25119 kPa | 998.93 ± 0.62
299.99 K, 25120 kPa | 998.96 ± 0.62
299.99 K, 30123 kPa | 1042.3 ± 0.64
299.99 K, 35126 kPa | 1082.1 ± 0.65
299.99 K, 40130 kPa | 1119.3 ± 0.66
299.99 K, 50137 kPa | 1186.8 ± 0.69
299.99 K, 60144 kPa | 1247.4 ± 0.71
299.99 K, 70151 kPa | 1302.7 ± 0.74
299.99 K, 80156 kPa | 1353.6 ± 1
299.99 K, 80158 kPa | 1353.7 ± 0.76
299.99 K, 90164 kPa | 1401.1 ± 0.78
299.99 K, 100172 kPa | 1445.6 ± 0.8
300 K, 1402.2 kPa | 696.01 ± 0.52
300 K, 1402.5 kPa | 696 ± 3
300 K, 1402.7 kPa | 696.01 ± 3
300 K, 2102.7 kPa | 709.98 ± 2.9
300 K, 2104.1 kPa | 710.04 ± 2.9
300 K, 3103.2 kPa | 728.84 ± 2.7
300 K, 3104.7 kPa | 728.9 ± 2.7
300 K, 3105.1 kPa | 728.91 ± 2.7
300 K, 4103.8 kPa | 746.6 ± 2.6
300 K, 4105.8 kPa | 746.67 ± 2.7
300 K, 5104.2 kPa | 763.4 ± 2.6
300 K, 6104.7 kPa | 779.36 ± 2.5
300 K, 6106.5 kPa | 779.42 ± 0.55
300 K, 7107.2 kPa | 794.65 ± 2.4
300 K, 8106 kPa | 809.21 ± 2.4
300 K, 8107.2 kPa | 809.25 ± 0.56
300 K, 9106.7 kPa | 823.24 ± 2.3
300 K, 10107 kPa | 836.75 ± 1.2
300 K, 10109 kPa | 836.79 ± 0.57
300 K, 12611 kPa | 868.58 ± 1.2
300 K, 15113 kPa | 898 ± 1.2
300 K, 17613 kPa | 925.47 ± 1.2
300 K, 20114 kPa | 951.3 ± 1.1
300 K, 25118 kPa | 998.93 ± 1.1
300 K, 30121 kPa | 1042.3 ± 1.1
300 K, 35124 kPa | 1082.1 ± 1.1
300 K, 40128 kPa | 1119.2 ± 1.1
300 K, 45131 kPa | 1154 ± 1
300 K, 50135 kPa | 1186.8 ± 1
300 K, 60142 kPa | 1247.4 ± 1
300 K, 70149 kPa | 1302.6 ± 1
300 K, 90163 kPa | 1401.1 ± 1
300 K, 100170 kPa | 1445.6 ± 1
319.99 K, 22616 kPa | 886.71 ± 1.1
319.99 K, 100172 kPa | 1386.9 ± 1
320 K, 2104.4 kPa | 556.2 ± 2.7
320 K, 3105.2 kPa | 584.43 ± 3
320 K, 4105.8 kPa | 609.63 ± 3
